Patent US11331289B2, “Antimicrobial composition” (priority 2017, dated 2022)

Experiments:
[1] = test system: Methicillin-Resistant Staphylococcus aureus (MRSA) 16116, 16110; assay: Oxyclo MIC of MRSA strains; type: cell-based
[2] = test system: Methicillin-Resistant Staphylococcus pseudintermedius (MRSP); assay: Time-killing curves, conclusion over strains and inocula; type: cell-based; settings: two inocula, two strains
Source text: (§1) The objective of this study is to assess in vitro the time-killing curves of oxyclozanide against four strains of Methicillin-Resistant Staphylococcus from dogs.
(§2) Two Methicillin-Resistant Staphylococcus aureus (MRSA) and two Methicillin-Resistant Staphylococcus pseudintermedius (MRSP) isolated from the clinics have been tested.
(§3) The assessment of time-killing curves has been realized by a broth macrodilution method (Mueller-Hinton II Broth).

[3] = test system: Methicillin-Resistant Staphylococcus aureus (MRSA); assay: as above; type: cell-based; settings: two inocula, two strains
Source text: as §1, §2, §3

S. aureus n°16 315 = assay: Time-killing curve, broth macrodilution; type: cell-based, Staphylococcus aureus
Protocol: (§4) The time-killing curve is used to determine the bactericidal or bacteriostatic activity of the antibimicrobial substances. Time-killing curves of Oxyclozanide against canine isolates of Staphylococcus aureus and Staphylococcus pseudintermedius were obtained using broth macrodilution method. After contact of different fixed amounts of Oxyclozanide with an inoculum, viable bacteria are counted immediately after contact and after 1, 3, 6 and 24 hours. Counting is performed on agar medium without antimicrobial substance.
(§5) Results are analyzed by plotting log10 CFU/ml versus time for each tested concentration. Bactericidal activity as defined by 99.9% killing of the inoculum is determined from time-killing curves by noting the presence of a ≥3 log10 decrease in CFU/ml.
(§6) Bacterial strains were sub-cultured twice from one cryobead on Mueller Hinton agar and incubated at 37° C. for 18-24 hours. From the second subcultures, isolated colonies were transferred into tubes containing 2 ml of Mueller Hinton Broth in order to obtain bacterial suspensions at 10^8 CFU/ml, knowing that an optical density of 0.1 at 620 nm corresponds to bacterial suspension at 10^8 CFU/ml. Then, bacterial suspensions were adjusted between 5 10^7 and 1 10^8 CFU/ml by dilution in Mueller Hinton broth.
(§7) For each concentration of Oxyclozanide to be tested, 50 μl of working solution concentrated 100× and […] of inoculum were added to 5 ml of Mueller-Hinton broth. Thus, the range of tested concentrations was from 0.125 to 8 μg/ml and the concentration of micro-organism was between 1 10^6 and 2 10^6 CFU/ml.
(§8) At the same time, a tube without Oxyclozanide was prepared: 50 μl of DMSO and 100 μl of inoculum were added to 5 ml of Mueller-Hinton broth and used as growth control. Tubes were incubated at 36° C. under agitation.
(§9) The numbers of viable bacteria were determined immediately after contact (TO) and after 1, 3, 6 and 24 h of incubation.
(§10) At each time, samples of each tube were taken and dilutions were performed in Mueller-Hinton broth. Then, dilutions were spread on Mueller Hinton agar with spiral plater. After 18 h of incubation at 36° C., counting of colonies was performed with automatic colony counter which determine the concentrations of viable bacteria. The technique employed made it possible to quantify bacterial concentrations as low as 20 CFU/ml.
(§11) Time-killing curves were plotted for each concentration of Oxyclozanide using Microsoft Excel software. The number or surviving bacteria was expressed as log10 CFU/ml. The time-killing curves of each strain represent the decrease in the viable bacteria count as a function of time for the Oxyclozanide concentrations concerned.
(§12) Bactericidal activity as defined by 99.9% killing of the inoculum is determined from time-killing curves by noting the presence of a ≥3 log10 decrease in CFU/ml.

S. aureus n°16 302 = assay: Time-killing curve, broth macrodilution; type: cell-based, Staphylococcus aureus
Protocol: as §4, §5, §6, §7, §8, §9, §10, §11, §12

SMILES: O=C(Nc1cc(Cl)cc(Cl)c1O)c1c(O)c(Cl)cc(Cl)c1Cl [Oxyclozanide]
- MIC ([1]; MRSA 16110): 1 µg/mL
- MIC ([1]; MRSA 16116): 0.5 µg/mL
- Concentrations with concentration-dependent bactericidal effect [2]: >= 2 MIC
- Concentrations with concentration-dependent bactericidal effect [3]: >= 2 MIC
- Bacteria reducing rate (S. aureus n°16 315; 0.25 μg/ml (½ MIC), 1 h): 0.3 Δ log10 CFU/ml
- Viable bacteria count (S. aureus n°16 315; 0.25 μg/ml (½ MIC), 1 h): 6.7 Log10 CFU/ml
- Bacteria reducing rate (S. aureus n°16 315; 0.25 μg/ml (½ MIC), 3 h): 0.3 Δ log10 CFU/ml
- Viable bacteria count (S. aureus n°16 315; 0.25 μg/ml (½ MIC), 3 h): 6.7 Log10 CFU/ml
- Bacteria reducing rate (S. aureus n°16 315; 0.25 μg/ml (½ MIC), 6 h): 0.7 Δ log10 CFU/ml
- Bacteria reducing rate (S. aureus n°16 315; 0.25 μg/ml (½ MIC), 24 h): 1.8 Δ log10 CFU/ml
- Bacteria reducing rate (S. aureus n°16 315; 0.5 μg/ml (MIC), 1 h): −0.1 Δ log10 CFU/ml
- Bacteria reducing rate (S. aureus n°16 315; 0.5 μg/ml (MIC), 3 h): 0.1 Δ log10 CFU/ml
- Viable bacteria count (S. aureus n°16 315; 0.5 μg/ml (MIC), 3 h): 6.6 Log10 CFU/ml
- Bacteria reducing rate (S. aureus n°16 315; 0.5 μg/ml (MIC), 6 h): −0.2 Δ log10 CFU/ml
- Bacteria reducing rate (S. aureus n°16 315; 0.5 μg/ml (MIC), 24 h): 0.5 Δ log10 CFU/ml
- Viable bacteria count (S. aureus n°16 315; 0.5 μg/ml (MIC), 24 h): 7.0 Log10 CFU/ml
- Bacteria reducing rate (S. aureus n°16 315; 1 μg/ml (2 MIC), 1 h): 0.0 Δ log10 CFU/ml
- Bacteria reducing rate (S. aureus n°16 315; 1 μg/ml (2 MIC), 3 h): 0.1 Δ log10 CFU/ml
- Viable bacteria count (S. aureus n°16 315; 1 μg/ml (2 MIC), 3 h): 6.6 Log10 CFU/ml
- Bacteria reducing rate (S. aureus n°16 315; 1 μg/ml (2 MIC), 6 h): −0.3 Δ log10 CFU/ml
- Bacteria reducing rate (S. aureus n°16 315; 1 μg/ml (2 MIC), 24 h): −1.2 Δ log10 CFU/ml
- Bacteria reducing rate (S. aureus n°16 315; 2 μg/ml (4 MIC), 1 h): 0.1 Δ log10 CFU/ml
- Viable bacteria count (S. aureus n°16 315; 2 μg/ml (4 MIC), 1 h): 6.5 Log10 CFU/ml
- Bacteria reducing rate (S. aureus n°16 315; 2 μg/ml (4 MIC), 3 h): 0.2 Δ log10 CFU/ml
- Viable bacteria count (S. aureus n°16 315; 2 μg/ml (4 MIC), 3 h): 6.6 Log10 CFU/ml
- Bacteria reducing rate (S. aureus n°16 315; 2 μg/ml (4 MIC), 6 h): −1.1 Δ log10 CFU/ml
- Bacteria reducing rate (S. aureus n°16 315; 2 μg/ml (4 MIC), 24 h): −2.3 Δ log10 CFU/ml
- Bacteria reducing rate (S. aureus n°16 315; 4 μg/ml (8 MIC), 1 h): 0.0 Δ log10 CFU/ml
- Bacteria reducing rate (S. aureus n°16 315; 4 μg/ml (8 MIC), 3 h): −0.7 Δ log10 CFU/ml
- Viable bacteria count (S. aureus n°16 315; 4 μg/ml (8 MIC), 3 h): 5.7 Log10 CFU/ml
- Bacteria reducing rate (S. aureus n°16 315; 4 μg/ml (8 MIC), 6 h): −1.8 Δ log10 CFU/ml
- Viable bacteria count (S. aureus n°16 315; 4 μg/ml (8 MIC), 6 h): 4.6 Log10 CFU/ml
- Bacteria reducing rate (S. aureus n°16 315; 4 μg/ml (8 MIC), 24 h): −5.1 Δ log10 CFU/ml
- Bacteria reducing rate (S. aureus n°16 315; 8 μg/ml (16 MIC), 1 h): 0.1 Δ log10 CFU/ml
- Bacteria reducing rate (S. aureus n°16 315; 8 μg/ml (16 MIC), 3 h): −1.5 Δ log10 CFU/ml
- Viable bacteria count (S. aureus n°16 315; 8 μg/ml (16 MIC), 3 h): 4.8 Log10 CFU/ml
- Bacteria reducing rate (S. aureus n°16 315; 8 μg/ml (16 MIC), 6 h): −2.3 Δ log10 CFU/ml
- Bacteria reducing rate (S. aureus n°16 315; 8 μg/ml (16 MIC), 24 h): −5.0 Δ log10 CFU/ml
- Bacteria reducing rate (S. aureus n°16 302; 0.25 μg/ml (½ MIC), 1 h): 0.0 Δ log10 CFU/ml
- Bacteria reducing rate (S. aureus n°16 302; 0.25 μg/ml (½ MIC), 3 h): 0.1 Δ log10 CFU/ml
- Bacteria reducing rate (S. aureus n°16 302; 0.25 μg/ml (½ MIC), 6 h): 0.6 Δ log10 CFU/ml
- Bacteria reducing rate (S. aureus n°16 302; 0.25 μg/ml (½ MIC), 24 h): 1.7 Δ log10 CFU/ml
- Bacteria reducing rate (S. aureus n°16 302; 0.5 μg/ml (MIC), 1 h): 0.0 Δ log10 CFU/ml
- Bacteria reducing rate (S. aureus n°16 302; 0.5 μg/ml (MIC), 3 h): 0.0 Δ log10 CFU/ml
- Bacteria reducing rate (S. aureus n°16 302; 0.5 μg/ml (MIC), 6 h): −0.3 Δ log10 CFU/ml
- Bacteria reducing rate (S. aureus n°16 302; 0.5 μg/ml (MIC), 24 h): 1.6 Δ log10 CFU/ml
- Bacteria reducing rate (S. aureus n°16 302; 1 μg/ml (2 MIC), 1 h): 0.0 Δ log10 CFU/ml
- Bacteria reducing rate (S. aureus n°16 302; 1 μg/ml (2 MIC), 3 h): 0.0 Δ log10 CFU/ml
- Bacteria reducing rate (S. aureus n°16 302; 1 μg/ml (2 MIC), 6 h): −0.2 Δ log10 CFU/ml
- Bacteria reducing rate (S. aureus n°16 302; 1 μg/ml (2 MIC), 24 h): 1.5 Δ log10 CFU/ml
- Viable bacteria count (S. aureus n°16 302; 1 μg/ml (2 MIC), 24 h): 7.9 Log10 CFU/ml
- Bacteria reducing rate (S. aureus n°16 302; 2 μg/ml (4 MIC), 1 h): 0.0 Δ log10 CFU/ml
- Bacteria reducing rate (S. aureus n°16 302; 2 μg/ml (4 MIC), 3 h): −0.1 Δ log10 CFU/ml
- Bacteria reducing rate (S. aureus n°16 302; 2 μg/ml (4 MIC), 6 h): −0.5 Δ log10 CFU/ml
- Viable bacteria count (S. aureus n°16 302; 2 μg/ml (4 MIC), 6 h): 6.0 Log10 CFU/ml
- Bacteria reducing rate (S. aureus n°16 302; 2 μg/ml (4 MIC), 24 h): −2.5 Δ log10 CFU/ml
- Viable bacteria count (S. aureus n°16 302; 4 μg/ml (8 MIC), 0 h): 6.5 Log10 CFU/ml
- Bacteria reducing rate (S. aureus n°16 302; 4 μg/ml (8 MIC), 1 h): −0.2 Δ log10 CFU/ml
- Bacteria reducing rate (S. aureus n°16 302; 4 μg/ml (8 MIC), 3 h): −0.7 Δ log10 CFU/ml
- Viable bacteria count (S. aureus n°16 302; 4 μg/ml (8 MIC), 3 h): 5.8 Log10 CFU/ml
- Bacteria reducing rate (S. aureus n°16 302; 4 μg/ml (8 MIC), 6 h): −2.3 Δ log10 CFU/ml
- Bacteria reducing rate (S. aureus n°16 302; 4 μg/ml (8 MIC), 24 h): −4.1 Δ log10 CFU/ml
- Viable bacteria count (S. aureus n°16 302; 4 μg/ml (8 MIC), 24 h): 2.4 Log10 CFU/ml
- Bacteria reducing rate (S. aureus n°16 302; 8 μg/ml (16 MIC), 1 h): −0.8 Δ log10 CFU/ml
- Viable bacteria count (S. aureus n°16 302; 8 μg/ml (16 MIC), 1 h): 5.7 Log10 CFU/ml
- Bacteria reducing rate (S. aureus n°16 302; 8 μg/ml (16 MIC), 3 h): −2.3 Δ log10 CFU/ml
- Bacteria reducing rate (S. aureus n°16 302; 8 μg/ml (16 MIC), 6 h): −3.8 Δ log10 CFU/ml
- Viable bacteria count (S. aureus n°16 302; 8 μg/ml (16 MIC), 6 h): 2.7 Log10 CFU/ml
- Bacteria reducing rate (S. aureus n°16 302; 8 μg/ml (16 MIC), 24 h): −5.2 Δ log10 CFU/ml
